Results from the supplement of paper PMC10307832.

How the values were obtained:
Assay in all cases: relative viability (nuclei count vs DMSO), 5 days (fraction); higher = more cells survive
Salubrinal = compound: O=C(/C=C/c1ccccc1)NC(NC(=S)Nc1cccc2cccnc12)C(Cl)(Cl)Cl [Salubrinal]
Outline: (§1)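 Lung cancer cell lines in 1536-well plates were kept overnight at 37 °C, then pinned with five library-drug doses (not always all listed) spaced by √10 on vehicle-anchored plates. After 5 days without medium change, cells were fixed, permeabilised and Hoechst-stained in one step, imaged at 4×, and nuclei were counted with MetaXpress. Viability is treated-well nuclei divided by vehicle-well nuclei, taken as the median over plates. Plates passed only with control CV below 25% and at least one doubling.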

[1] = compound: Cc1ccc2nc(NCCN)c3ncc(C)n3c2c1
Outline: as §1

[2] = compound: Cc1ccc2nc(NCCN)c3ncc(C)n3c2c1 + CC1(C)CCC(c2ccc(Cl)cc2)=C(CN2CCN(c3ccc(C(=O)NS(=O)(=O)c4ccc(N[C@H](CCN5CCOCC5)CSc5ccccc5)c(S(=O)(=O)C(F)(F)F)c4)cc3)CC2)C1 [Navitoclax] (partner 0.5 µM)
Outline: (§2)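 Five library-drug doses in √10 steps were combined with a fixed anchor-drug dose, or a single drug was given alone, by pin tool to lung cancer cell lines in 1536-well plates the day after seeding. Nuclei were stained and counted after 5 days. Relative viability is the nuclei count in treated wells over that in vehicle wells, taken as the median of duplicate plates.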

Salubrinal + Tozasertib = compound: O=C(/C=C/c1ccccc1)NC(NC(=S)Nc1cccc2cccnc12)C(Cl)(Cl)Cl [Salubrinal] + Cc1cc(Nc2cc(N3CCN(C)CC3)nc(Sc3ccc(NC(=O)C4CC4)cc3)n2)n[nH]1 [Tozasertib] (partner 0.1 µM)
Outline: as §2

## UMC-11
Salubrinal; 0.08 µM
  relative viability: 0.901
Salubrinal; 0.253 µM
  relative viability: 0.869
Salubrinal; 0.8 µM
  relative viability: 1.09
Salubrinal; 2.53 µM
  relative viability: 1.01
Salubrinal; 8 µM
  relative viability: 1.03
[1]; 0.04 µM
  relative viability: 1.01
[1]; 0.1265 µM
  relative viability: 0.918
[1]; 0.4 µM
  relative viability: 0.939
[1]; 1.265 µM
  relative viability: 0.965
[1]; 4 µM
  relative viability: 0.946
[2]; first compound 0.04 µM
  relative viability: 0.315
[2]; first compound 0.1265 µM
  relative viability: 0.342
[2]; first compound 0.4 µM
  relative viability: 0.33
[2]; first compound 1.265 µM
  relative viability: 0.324
[2]; first compound 4 µM
  relative viability: 0.365
Salubrinal + Tozasertib; first compound 0.08 µM
  relative viability: 0.208
Salubrinal + Tozasertib; first compound 0.253 µM
  relative viability: 0.225
Salubrinal + Tozasertib; first compound 0.8 µM
  relative viability: 0.21
Salubrinal + Tozasertib; first compound 2.53 µM
  relative viability: 0.186
Salubrinal + Tozasertib; first compound 8 µM
  relative viability: 0.189
